# Reference: ChEMBL document CHEMBL1131958, “Synthesis of bisquinolines and their in vitro ability to produce methemoglobin in canine hemolysate” (1999)
# Active and inactive are the calls of the source. No cut-off for these calls is given here.
# Legend:
# Canis familiaris [1] = organism: Canis familiaris; experiment: In vitro effect on methemoglobin formation in blood of dog at 1 mM concentration; Nil; assay type: functional; conditions: Canis lupus familiaris
# Canis familiaris [2] = organism: Canis familiaris; experiment: In vitro effect on methemoglobin formation in blood of dog at 5 mM concentration; assay type: functional, Canis lupus familiaris
# Canis familiaris [3] = organism: Canis familiaris; experiment: In vitro effect on methemoglobin formation in blood of dog at 5 mM concentration; Nil; assay type: functional; conditions: Canis lupus familiaris
# Canis familiaris [4] = organism: Canis familiaris; experiment: In vitro effect on methemoglobin formation in blood of dog at 1 mM concentration; assay type: functional, Canis lupus familiaris
Compound,Methemoglobin (Canis familiaris [1]),Methemoglobin (Canis familiaris [2]),Methemoglobin (Canis familiaris [3]),Methemoglobin (Canis familiaris [2]; Canis lupus familiaris),Methemoglobin (Canis familiaris [4])
Clc1ccc2c(NCCNCCCCNCCNc3ccnc4cc(Cl)ccc34)ccnc2c1,Nil,3%,,,
O=C(O)C(CCCCNc1ccnc2cc(Cl)ccc12)Nc1ccnc2cc(Cl)ccc12 (stereo not drawn),Nil,,Nil,,
N/C(=N\CCCC(Nc1ccnc2cc(Cl)ccc12)C(=O)O)Nc1ccnc2cc(Cl)ccc12 (stereo not drawn),Nil,1.5%,,,
Clc1ccc2c(NCCN3CCN(c4ccnc5cc(Cl)ccc45)CC3)ccnc2c1,Nil,,,Nil,
O=[N+]([O-])c1cc2c(NCCCCNc3ccnc4cc(Cl)c([N+](=O)[O-])cc34)ccnc2cc1Cl,Nil,6.42%,,,
O=C(O)C(CCCNc1ccnc2cc(Cl)ccc12)Nc1ccnc2cc(Cl)ccc12 (stereo not drawn),Nil,6.89%,,,
COc1cc(NC(C)CCCN)c2ncccc2c1 (stereo not drawn) [PRIMAQUINE],,87.6%,,,11.52%
CCN(CC)CCCC(C)Nc1ccnc2cc(Cl)ccc12 (stereo not drawn),inactive,,inactive,,
Clc1ccc2c(NCCCCNc3ccnc4cc(Cl)ccc34)ccnc2c1,,90.8%,,,29.5%
